{"source": "patent US20200377863A1", "about": "“MODEL SYSTEM OF LIVER FIBROSIS AND METHOD OF MAKING AND USING THE SAME” (Wake Forest University Health Sciences, priority 2017, published 2020)", "key": {"[1]": {"tested_on": "EZH2", "conditions": "lymphoma and non-small cell lung cancer cell lines in vitro; cited from earlier work"}, "[2]": {"tested_on": "cancer cell lines that have EZH2 activating mutations", "conditions": "cited from earlier work"}, "[3]": {"tested_on": "cells that do not carry activating EZH2 mutations", "conditions": "high doses; cited from earlier work"}, "[4]": {"target": "T1, EZH2 (Homo sapiens, UniProt Q15910)", "T1 construct": "endogenous in cells; host or cells: myofibroblasts transitioned from mesenchymal stem cells (called tumor-associated fibroblasts, TAF)", "T1 sequence (Q15910 whole entry, species assumed)": "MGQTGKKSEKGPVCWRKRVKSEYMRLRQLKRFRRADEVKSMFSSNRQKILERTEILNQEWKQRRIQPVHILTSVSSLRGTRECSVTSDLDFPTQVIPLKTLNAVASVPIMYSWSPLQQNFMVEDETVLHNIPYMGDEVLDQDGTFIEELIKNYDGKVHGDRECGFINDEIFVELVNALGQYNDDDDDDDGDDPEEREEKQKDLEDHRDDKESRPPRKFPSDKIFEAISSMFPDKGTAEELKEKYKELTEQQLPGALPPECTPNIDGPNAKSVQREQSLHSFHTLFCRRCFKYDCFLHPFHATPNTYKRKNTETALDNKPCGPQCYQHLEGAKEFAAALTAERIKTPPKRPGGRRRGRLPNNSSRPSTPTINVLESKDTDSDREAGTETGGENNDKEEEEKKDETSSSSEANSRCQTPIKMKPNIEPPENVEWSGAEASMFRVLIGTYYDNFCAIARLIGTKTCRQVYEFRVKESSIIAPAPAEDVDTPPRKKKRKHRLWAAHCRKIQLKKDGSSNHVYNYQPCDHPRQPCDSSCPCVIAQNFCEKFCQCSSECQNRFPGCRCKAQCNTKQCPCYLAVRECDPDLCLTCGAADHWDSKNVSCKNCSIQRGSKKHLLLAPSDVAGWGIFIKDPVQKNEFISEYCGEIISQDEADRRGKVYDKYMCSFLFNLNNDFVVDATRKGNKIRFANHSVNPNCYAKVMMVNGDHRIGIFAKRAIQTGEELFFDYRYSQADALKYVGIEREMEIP", "T1 sequence (Q15022 whole entry partner, species assumed)": "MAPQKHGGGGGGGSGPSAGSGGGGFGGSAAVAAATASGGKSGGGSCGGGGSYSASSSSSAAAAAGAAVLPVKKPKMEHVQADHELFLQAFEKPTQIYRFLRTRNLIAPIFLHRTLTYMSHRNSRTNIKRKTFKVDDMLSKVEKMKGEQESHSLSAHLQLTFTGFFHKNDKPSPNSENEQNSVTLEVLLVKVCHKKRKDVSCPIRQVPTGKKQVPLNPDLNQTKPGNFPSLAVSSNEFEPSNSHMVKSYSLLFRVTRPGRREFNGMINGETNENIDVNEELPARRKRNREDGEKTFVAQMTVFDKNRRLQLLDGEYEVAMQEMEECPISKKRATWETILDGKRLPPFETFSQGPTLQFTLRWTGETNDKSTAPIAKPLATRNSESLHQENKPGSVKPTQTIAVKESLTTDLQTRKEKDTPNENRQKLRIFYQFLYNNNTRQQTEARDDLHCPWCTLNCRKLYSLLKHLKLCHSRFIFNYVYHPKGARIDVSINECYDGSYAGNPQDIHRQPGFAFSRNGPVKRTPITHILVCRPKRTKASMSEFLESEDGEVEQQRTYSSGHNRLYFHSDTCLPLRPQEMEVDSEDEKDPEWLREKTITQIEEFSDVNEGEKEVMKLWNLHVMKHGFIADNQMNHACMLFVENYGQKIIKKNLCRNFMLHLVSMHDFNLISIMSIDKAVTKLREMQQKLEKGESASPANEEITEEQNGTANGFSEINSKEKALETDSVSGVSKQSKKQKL", "T1 sequence (O75530 whole entry partner, species assumed)": "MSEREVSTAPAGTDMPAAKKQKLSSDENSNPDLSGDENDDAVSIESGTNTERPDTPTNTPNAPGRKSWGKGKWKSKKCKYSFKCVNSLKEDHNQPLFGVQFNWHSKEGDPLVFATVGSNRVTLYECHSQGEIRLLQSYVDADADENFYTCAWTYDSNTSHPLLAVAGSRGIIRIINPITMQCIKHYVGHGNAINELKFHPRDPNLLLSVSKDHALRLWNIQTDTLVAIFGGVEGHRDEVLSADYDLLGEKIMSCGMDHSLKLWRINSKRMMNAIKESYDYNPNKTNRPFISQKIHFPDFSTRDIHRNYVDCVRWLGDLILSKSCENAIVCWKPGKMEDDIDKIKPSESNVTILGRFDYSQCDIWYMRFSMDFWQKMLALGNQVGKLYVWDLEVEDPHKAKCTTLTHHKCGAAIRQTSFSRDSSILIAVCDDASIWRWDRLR", "assay": "Western blot and densitometry of EZH2 activity marker H3K27me3 in fibroblasts treated with GSK-126", "assay_type": "cell-based", "method": "(§1) FIG. 4A-FIG. 4F. Analysis of LX-2 cells. FIG. 4A: Western blot comparison of αSMA and PRC2 components/markers in Myofibroblasts and LX-2. FIG. 4B: Densitometry analysis of Myofibroblast vs. LX-2 western blot. FIG. 4C: Western blot analysis of αSMA and PRC2 components/markers in LX-2 cells treated with TGFβ for 24 or 48 hours. FIG. 4D: Densitometry analysis of TGFβ treated LX-2. FIG. 4E: Western blot analysis of EZH2 marker (H3K27me3) for EZH2 activity in myofibroblasts transitioned from Mesenchymal Stem Cells treated with GSK-126, a chemical inhibitor of EZH2. DMSO is a vehicle control."}, "[5]": {"tested_on": "implanted liver organoids", "assay": "Effect of CCl4 treatment on liver organoids implanted on mouse liver", "assay_type": "in vivo, nude mice", "conditions": "4 μl/g CCl4 in olive oil (1:1), bi-weekly subcutaneous injections", "method": "FIG. 3. The effect of CCl4 treatment on implanted liver organoids. Liver organoids were inserted on top of mouse livers via a small hole carved with a 8 mm biopsy punch and immobilized with fibrin glue. Some of the mice were treated with 4 μl/g CCl4, via bi-weekly subcutaneous injections. Liver organoids were harvested after 1 and 3 weeks and immune-stained for human hepatocytes (Hep-1) and proliferating cells (PCNA). Implant margins are drawn.\nYet, the in vitro culture conditions lack multiple factors present in vivo including components of the blood and immune cells, to mention a few. Accordingly, we implanted organoids on top the liver of nude mice by creating a small hole with a biopsy punch and immobilized them with fibrin glue. […] In parallel, we treated some on the implanted mice with […] of CCl4 in olive oil (1:1), via bi-weekly subcutaneous injections. […] Neovascularization was also observed within the organoids, probably due to CCl4-induced injury of the host liver."}, "[6]": {"tested_on": "LX-2", "assay": "Western blot of EZH2 activity and PRC2 components in LX-2 cells incubated with TGFβ", "assay_type": "cell-based", "conditions": "LX-2 cells treated with TGFβ for 24 or 48 hours; FIG. 4C, 4D", "method": "as §1\nIn the fibrotic liver tissue, about 90% of myofibroblasts are derived from HSC (Liedtke, C., et al., Experimental liver fibrosis research: update on animal models, legal issues and translational aspects. Fibrogenesis Tissue Repair, 2013. 6(1): p. 19), and EZH2 may be an epigenetic regulator of HSC activation and transition into myofibroblast. It was shown that, like myofibroblasts (MF-10), the HSC cell line (LX-2) expresses EZH2 and the PRC components in vitro (FIG. 4A, FIG. 4B)."}}, "data": [{"compound": "CC[C@H](C)n1cc(C)c2c(C(=O)NCc3c(C)cc(C)[nH]c3=O)cc(-c3ccc(N4CCNCC4)nc3)cc21", "note": "[GSK-126]", "values": [{"measurement": "Prevention of H3K27me3", "setting": "[1]", "value": "effective at preventing H3K27me3"}, {"measurement": "Cell death", "setting": "[2]", "value": "resulted in cell death"}, {"measurement": "Lethality", "setting": "[3]", "value": "non-lethal, even at high doses"}, {"measurement": "Densitometry of EZH2 marker (H3K27me3): activity of EZH2", "setting": "[4]; myofibroblasts transitioned from Mesenchymal Stem Cells, treated with GSK-126, FIG. 4F", "value": "effective decrease in activity of EZH2"}, {"measurement": "H2K27me3 after incubation with GSK-126", "setting": "[4]; tumor-associated fibroblasts (TAF), Western blot, FIG. 4E, 4F", "value": "complete loss of H2K27me3"}]}, {"compound": "ClC(Cl)(Cl)Cl", "note": "[CCl4, carbon tetrachloride]", "values": [{"measurement": "Organoid histology after 1 week of CCl4 treatment", "setting": "[5]; harvested after 1 week", "value": "lack of nucleated human hepatocytes within the organoids and early signs of fibrosis"}, {"measurement": "Organoid histology after 3 weeks of CCl4 treatment", "setting": "[5]; harvested after 3 weeks", "value": "higher number of proliferating stromal and endothelial cells"}]}, {"compound": "TGFβ", "values": [{"measurement": "EZH2 activity and PRC machinery (Suz12, H3K27me3)", "setting": "[6]", "value": "induced EZH2 activity and PRC machinery"}]}]}
